We go through two compounds from patent US4014909A, “Esters of 21-thiol steroids” (priority 1974, dated 1977).

The subject of data set [1] is exudate in carrageenan air pouch. In words: Anti-exudative action, carrageenan air pouch. Type of data set: in vivo, rat (Wistar, male). The following applies: injected into the air pouch 96 h after carrageenan; exudate measured 96 h later. As for the experimental part: The anti-exudative activity was brought into evidence by means of a test, the principle of which is as follows.
This test consists of creating, under the dorsal skin of the rat an air pouch in which an irritant product is injected. An inflammatory reaction appears rapidly and is shown by the accumulation of liquid in the pouch of air.
The introduction of an anti-inflammatory product into the air pouch reduced, more or less completely, the accumulation of exudate.
This study was carried out with male rats of the Wistar strain, the initial weight of which was between 160 and 180 grams, following the technique described by M. Fukuhara and S. Tsurufuji (Bio-Chem. Pharmac. 18, 475-484, 1969). Each lot comprised 10 animals distributed at random.
Twenty-four hours before the beginning of the test, each animal received a sub-cutaneous injection of 6 ml. of air in the dorsal region, previously shaved. […]
Ninety-six hours after this last injection, the animals were killed and the exudate contained in the pouch was collected through a small incision made with a scalpel, and its volume was measured in a test tube.
The difference in volume of the exudate between the animals treated and the reference lot was expressed as a percentage inhibition.

In the next data set the test system is granuloma / thymus. In words: Ratio of the local anti-inflammatory activity to the thymolytic activity. Type of data set: in vivo, rat (Wistar). As to conditions: for ED50 anti-proliferative activity / ED50 thymolytic activity (sub-cutaneous route): thymolytic activity determined by sub-cutaneous route; for ED50 anti-proliferative activity / ED50 thymolytic activity (oral route): thymolytic activity determined by the oral route. As for the experimental part: The DE50 were calculated by transferring the results on to semi-logarithmic paper.
(§1) For each animal, the weight of the thymus has been brought to 100 grams of body weight. The thymolytic activity of the products under study was then expressed as a percentage of regression of the thymus with respect to the animals of the reference group and the ED50 of each product tested was estimated by transferring the percentage inhibition obtained for each dose on semi-logarithmic paper.
The ratio is indicated in Tables VII, VIII and IX which follow: […]

The subject of another data set is thymus. Type of data set: in vivo, rat (Wistar, young male). How it is done:
The thymolytic effects have been examined by means of a test, the principle of which is as follows:
The repeated administration of a gluco-corticoid having a systemic activity causes an involution of the defence system of the organism, of which two organs belong to the reticulo-endothelial system, the spleen and the thymus, this latter being the most sensitive to this action, especially with young animals. The thymic involution is estimated by weighing.
The various products were injected daily by the oral or the sub-cutaneous route for four days, to young male rats of Wistar-strain, the initial weight of which was between 45 and 55 grams, distributed at random by groups of ten.
The products under study were administered at a volume of 0.2 ml. per animal for both methods, in suspension in:
Carboxy-methyl-cellulose at 5 % for sub-cutaneous injection;
Gum arabic at 5 % for the oral route.
The animals of the reference groups received the same volume of the corresponding vehicle.
Ninety-six hours after the first administration, the animals were killed, the thymus glands being taken and weighed immediately.
as §1

The nature of data set [2]: Glycemia after 4 weeks treatment. Type of data set: in vivo, rat (Sprague-Dawley). How it is done: (§2) The action on the endocrine glands and the genital tractus, and a possible ulcerogenic effect were investigated, together with the effects on the glucidic and proteic metabolisms, on the hydro-mineral equilibrium after long-term administration.
(§3) There were utilized groups of 10 male rats and ten female rats of Sprague-Dawley S.P.F. strain which have been given the products under study by sub-cateneous methods daily for four weeks.
(§4) The products were administered in suspension in 5 % carboxy-methyl-cellulose under a volume of 0.5 ml. per 100 grams of body weight, in three different doses, the animals of the reference lot receiving the same volume of the vehicle alone.
In order to confirm certain previous results of the pharmacological short-term study, there has furthermore been determined, for each lot of animals:
at the end of the treatment:
(§5) During the course of the long-term study, the JO 1016 was administered daily to the male and female rats in doses of 100 mg/kg, 250 mg/kg, 500 mg/kg by the sub-cutaneous route.
The following Tables XIV and XV indicate the results of the proportions of glycemia with the reference animals and animals treated for 4 weeks following the procedure (h)

Data set [3] deals with liver, kidneys, spleen, thymus, stomach. Type of data set: in vivo, rat (Sprague-Dawley). As to conditions: 4 weeks.
Description: as §2
The principle of the tests employed is as follows.
The ulcer-producing action of certain corticoids, after repeated administration is well known, but the mechanism of this action still remains doubtful.
These studies have been carried out for some of the products according to the invention after sub-chronic administration.
as §3, §4
At the end of this study there were extracted:
The samples numbered (1), (2) and (3) were immediately weighed. All the samples were then fixed for histological examination in the Bouin-Holland fixator.
as §5

Like-named read-outs stand apart in the source and are kept apart here.

In the case of `CC(=O)OCC(=O)[C@@]1(O)CC[C@H]2[C@@H]3CCC4=CC(=O)CC[C@]4(C)[C@H]3[C@@H](O)C[C@@]21C` [Hydrocortisone (acetate), Hydrocortisone acetate, reference compound], the ED50 anti-exudatory activity in data set [1] is recorded as 1,5 mg. In the data set with granuloma / thymus, the “ED50 anti-proliferative activity / ED50 thymolytic activity (sub-cutaneous route)” value was 1.2 and the “ED50 anti-proliferative activity / ED50 thymolytic activity (oral route)” value turned out to be 0.25. Further, the “ED50 thymolytic activity, sub-cutaneous route” value in the data set on thymus (rat, in vivo, 5760 min) is given as 0.68 mg. Further, the “ED50 thymolytic activity, oral route” value in the data set with thymus (rat, in vivo, po, 5760 min) was found to be 4 mg.

`CC(C)(C)C(=O)SCC(=O)[C@@]1(O)CC[C@H]2[C@@H]3CCC4=CC(=O)CC[C@]4(C)[C@H]3[C@@H](O)C[C@@]21C` [JO 1016, Dihydroxy-11β, 17α thio-21 dioxo-3,20 pregnene-4-21 pivalate]: in data set [2] (female, 500 mg/kg s.c.), the “Glycemia, average ± standard error” value is listed as 1,10 ± 0,04 g/liter. The “Glycemia, average ± standard error” value in data set [2] (male, 100 mg/kg s.c.) amounted to 1.2 ± 0.04 g/L. Besides, the “Glycemia, average ± standard error” value in data set [2] (male, 250 mg/kg s.c.) stood at 1.2 ± 0.05 g/L. Besides, the “Glycemia, percentage of variation and probabilities” value in data set [2] (male, 500 mg/kg s.c.) is “N.S”. Besides, in data set [1], the ED50 anti-exudatory activity worked out at 1.5 mg. Also, in the data set with granuloma / thymus, the “ED50 anti-proliferative activity / ED50 thymolytic activity (sub-cutaneous route)” value was found to be 0.0008 and the “ED50 anti-proliferative activity / ED50 thymolytic activity (oral route)” value is reported as below 0.003. Also, in data set [3] (250 mg/kg s.c. daily), the “Kidneys: presence of abscess (cases)” value is 0/10, the “Liver: presence of abscess (cases)” value is 0/10, the “Spleen: atrophied (cases)” value was 0/10 and the “Stomach: ulcerated (cases)” value is listed as 0/10. Further, in data set [3] (250 mg/kg s.c. daily), the “Stomach: ulcerated and infected (cases)” value was 0/10; the “Thymus: atrophied (cases)” value was 0/10. Also, in data set [3] (500 mg/kg s.c. daily), the “Kidneys: presence of abscess (cases)” value is recorded as 0/10, the “Liver: presence of abscess (cases)” value was 0/10, the “Spleen: atrophied (cases)” value was 0/10 and the “Stomach: ulcerated (cases)” value is on record as 0/10. Further, in data set [3] (500 mg/kg s.c. daily), the “Stomach: ulcerated and infected (cases)” value was 0/10; the “Thymus: atrophied (cases)” value is 0/10. The “ED50 thymolytic activity, oral route” value in the data set on thymus (oral, total dose administered during four days per rat of about 50 g) was found to be 400 mg. In the data set with thymus (sub-cutaneous, total dose administered during four days per rat of about 50 g), the “ED50 thymolytic activity, sub-cutaneous route” value was above 120 mg.
